Measured values taken from patent US20220411448A1, “CHROMENE-4-ONE DERIVATIVES AS BRAIN-DERIVED NEUROTROPHIC FACTOR (BDNF) MIMETICS” (FLORATEK PHARMA AG, priority 2019, published 2022).

Experiments:
Arc, cFos, and Zif268 = assay: Quantitative PCR of immediate-early genes linked to neuronal plasticity; type: cell-based, mouse; conditions: 1 μM and 10 μM, 1 h and 2 h treatment
Method: The effect of Compound A or derivative thereof on the mRNA expression of genes related to plasticity (Arc, cFos, and Zif268) was determined as described. Cox (cytochrome oxidase) was used to evaluate if the derivative changes expression of mitochondrial genes.
Determination of gene expression was performed as previously described [Yang J, et al, Lactate promotes plasticity gene expression by potentiating NMDA signalling in neurons. Proc Natl Acad Sci USA. 2014. 111(33):12228-33]. Total RNA was isolated from cultured cells using Nucleospin RNA II kit (Macherey-Nagel) according to the manufacturer's instructions. The first strand of cDNA was synthesized from 100 ng of total RNA (60 min at 37° C. followed by 5 min at 95° C.) using a high-capacity RNA to cDNA reverse transcription system (Applied Biosystems). One-twentieth of the resulting cDNA was amplified by quantitative PCR (qPCR) with an ABI Prism 7900 system (Applied Biosystems). The PCR mix was composed of 6 ng of cDNA, 300 nM of forward and reverse primers in 10 μL of ix SYBR-Green PCR MasterMix (Applied Biosystems). Primer sequences were designed using Primer Express 3.0 software (Applied Biosystems) and oligonucleotides were synthesized by Microsynth.

TrkB receptor = assay: Activation of TrkB receptor: phosphorylation in cortical neurons (WES capillary immunoassay); type: cell-based, mouse
Method: On the day of preparation (DIV1) cortical neurons were seeded on poly-D-lysine pre-coated 6-well plates at a density of 1.25*10^6 cells per well and cultured at 37° C.; 95% humidity and 5% CO2 until […] with a half medium exchange on DIV4-6. On DIV10 cells are treated with test item TI (SND118) and control Rh (7,8DHF) at different concentrations for 15 min. The experiment was carried out with n=6 technical replicates per condition, vehicle treated cells served as control. Cells were lysed in 150 μL cold RIPA buffer [50 mM Tris pH 7.4, 1% Nonidet P40, 0.25% Na-deoxy-cholate, 150 mM NaCl, 1 mM EDTA supplemented with freshly added 1 μM NaF, 0.2 mM Na-ortho-vanadate, 80 μM Glycerophosphate, protease (Calbiochem) and phosphatase (Sigma) inhibitor cocktail.
Phosphorylation of the TrkB receptor was detected using the following rabbit anti-Tyr specific antibodies: anti-TrkB Y515, Y706/707 and Y816 and compared with total TrkB detected with anti-TrkB antibody (Abcam). Antibody dilutions and protein amounts were optimized for signal specificity.
Automated separation and immunostaining of total and phospho TrkB was carried out using a capillary-based immunoassay, WES™ (Proteinsimple®). Samples were applied to a 25 capillary cartridge with a 2 to 440 kDa matrix, at an optimized total protein concentration. Sample loading, separation, immunoprobing, washing, detection and quantitative data analysis were performed automatically by WES™ Western system (Compass software V 4.0.0). The areas under the curve were used for the analysis and the phosphorylated versus vehicle or total TrkB signal ratio was calculated and used for statistics.

[1] = test system: organotypic hippocampal brain slices with IAA lesion; assay: Organotypic brain slices, iodoacetic acid injury: cell survival (MTT); type: cell-based, mouse; conditions: SND118 10 and 30 μM; SND124 30 μM; 7,8 DHF 10 μm; IAA 250 μM for 110 min
Method: Preparation of the organotypic brain slices were performed by decapitation of the P9/P10 mouse pups, removing skin and skull and immersing brains in slicing medium (Opti-MEM 1, […]). Brains were hemisected and hippocampi were isolated. Hippocampi were placed on the cutting disc of a McIlwain Tissue Chopper. […] hippocampal slices were chopped transversely. A number of 4 slices per hippocampus were placed on porous (0.4 μM) transparent membrane inserts (Millipore) and incubated for 1 h on ice in HBSS containing 10 mM glucose. Afterwards inserts were transferred to fresh 24-well plates containing 250-300 μl culture medium (50% MEM/EBSS, 25% horse serum, 25% CMF-HBSS, 25 mM glucose, 0.5% pen/strep). Slices were maintained at 37° C. and 5% CO2.
On DV15, brain slices were pretreated with SND derivatives test compounds and the reference 7,8DHF at various concentrations (between […]) for 30 min, followed by the addition of iodoacetic acid (IAA) at 250 μM for 110 min, when cell survival, MMP and toxicity were measured.
Cell survival was measured by the MTT assay. For the determination of mitochondrial membrane potential, treated organotypic brain slices were loaded with the mitochondrial fluorescent dye, tetramethylrhodamine methyl ester (TMRM) at a final concentration of 100 nM in PBS and incubated for 45 min at 37° C. The TMRM containing solution was aspirated and slices were transferred into new well plates containing the appropriate amount of PBS. Fluorescence was measured with a plate-reader (Cytation 5) using wavelengths of excitation and emission of 548 and 574 nm, respectively (area scan). Values were calculated as percent of control values (vehicle control). Toxicity of the treatment was measured by LDH. No toxicity was observed.

[2] = Metabolic stability in mouse liver microsomes; type: in vitro ADME; conditions: male, CD1, mouse, pooled liver microsomes, pH 7.4, 0.5 mg/ml protein, read-out: T1/2 LM mouse
Method: Sample type: pooled liver or intestine microsomes; Species: CD1-mouse (male), human (mixed gender) Time points: 0, 10, 20, 40, 60 min cofactors, and negative control;
Protein content: 0.5 mg/ml: Replicates: 2 with cofactors, 1 without cofactors; Cofactors: NADPH (1 mM)+UDPGA (1 mM)+15 μg/ml alamethicin Buffer: 0.1 M phosphate buffer pH 7.4, 2 mM MgCl2; Spiking solvent: 50% DMSO ( 1/100 to incubation); Quenching solvent: 2-fold volume of 75% ACN, Control: midazolam disappearance rate
The study compounds were incubated with liver or intestine microsomes as specified above. The collected samples were stored at −20 C until thawed at room temperature, centrifuged and analyzed as presented below.
The samples were analysed by UPLC/HR-MS (with data dependent MS/MS mode) to monitor substrate depletion (and later optionally metabolite formation). The analytical method was optimised by using the parent compound for optimum chromatographic properties (peak shape and retention) and mass spectrometric ionisation. Disappearance rate of the study compound was estimated based on relative LC/MS peak areas (o min marked as 100%), and was used to calculate in vitro half-life and clearance (and in vivo extrapolation of hepatic clearance).

phospho Tyr706/707 signal normalized to the TrkB (TrkB receptor): significant increase
phosphorylation of TrkB at Tyr residue 706/707 versus the vehicle (TrkB receptor; SND118 2 μM): increased slightly
half-life at 1 μM [2]: 23 min
SMILES: O=c1cc(-c2ccc(CCCC[P+](c3ccccc3)(c3ccccc3)c3ccccc3)cc2)oc2c(O)c(O)ccc12 [SND118, 4-[4-(7,8-dihydroxy-4-oxo-chromen-2-yl)phenyl]butyltriphenylphosphonium bromide]
mRNA expression of genes related to plasticity (Arc, cFos, and Zif268) (Arc, cFos, and Zif268): increased
phosphorylation of the TrkB receptor at sites Tyr 515 and Tyr 816 (TrkB receptor; 1 and 2 μM): induced statistically significant phosphorylation
cell survival upon IAA lesion (MTT) [1]: statistically increase cell survival
